Data on six compounds can be found in US12391648B2, “Pyridyloxy thioester derivative and preparation method therefor, herbicidal composition, and application” (Qingdao Kingagroot Chemical Compound Co., Ltd., priority 2018, dated 2025).

Molecules are shown by their SMILES.

The subject of one assay is Abutilon theophrasti. In words: Post-emergence test experiment (Table 3, 1000 g/ha). It is filed as in vivo. As to conditions: post-emergence spray, after 3 weeks, fresh weight inhibition. In outline: (§1)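 Activity graded levels 0-5 by fresh-weight inhibition (level 5 above 85%, level 0 below 5%), assessed 3 weeks after treatment. Plants grown in greenhouse pots were sprayed post-emergence at 2-3 leaves using acetone/tween-80 solutions with methyl oleate synergist (1.5 L/ha).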
As to `CCC(CC)SC(=O)C(C)Oc1nc(F)c(Cl)c(N)c1Cl` (stereo not drawn) [Compound 150], the “Activity level (growth inhibition rate) Abutilon theophrasti” value is recorded as 5 (Level 5: the growth inhibition rate is greater than 85%).

With `CC(Oc1nc(F)c(Cl)c(N)c1Cl)C(=O)Sc1ccccc1` (stereo not drawn) [Compound 107], the “Activity level (growth inhibition rate) Abutilon theophrasti” value is 5 (Level 5: the growth inhibition rate is greater than 85%).

On to `CCSC(=O)C(C)Oc1ncc(Cl)c(N)c1C(F)(F)F` (stereo not drawn) [Compound 16], for which the “Activity level (growth inhibition rate) Abutilon theophrasti” value is reported as 5 (Level 5: the growth inhibition rate is greater than 85%).

Turning to `CC(C)SC(=O)C(C)Oc1nc(F)c(Cl)c(N)c1Cl` (stereo not drawn) [Compound 68], the “Activity level (growth inhibition rate) Abutilon theophrasti” value is recorded as 5 (Level 5: the growth inhibition rate is greater than 85%).

Take `CC(Oc1nc(F)c(Cl)c(N)c1Cl)C(=O)SCC(F)(F)C(F)(F)F` (stereo not drawn) [Compound 80]: the “Activity level (growth inhibition rate) Abutilon theophrasti” value is recorded as 5 (Level 5: the growth inhibition rate is greater than 85%).

Turning to `CC(C)CSC(=O)C(C)Oc1nc(F)c(Cl)c(N)c1Cl` (stereo not drawn) [Compound 133], the “Activity level (growth inhibition rate) Abutilon theophrasti” value was 5 (Level 5: the growth inhibition rate is greater than 85%).

In the next assay the test system is Galium spurium. The description is as above. It is filed as in vivo. As to conditions: post-emergence spray, after 3 weeks, fresh weight inhibition. In a few lines: as §1
On to `CCC(CC)SC(=O)C(C)Oc1nc(F)c(Cl)c(N)c1Cl` (stereo not drawn) [Compound 150], for which the “Activity level (growth inhibition rate) Galium spurium” value is given as 5 (Level 5: the growth inhibition rate is greater than 85%).

With `CC(Oc1nc(F)c(Cl)c(N)c1Cl)C(=O)Sc1ccccc1` (stereo not drawn) [Compound 107], the “Activity level (growth inhibition rate) Galium spurium” value is recorded as 5 (Level 5: the growth inhibition rate is greater than 85%).

As for `CCSC(=O)C(C)Oc1ncc(Cl)c(N)c1C(F)(F)F` (stereo not drawn) [Compound 16], the “Activity level (growth inhibition rate) Galium spurium” value is on record as 5 (Level 5: the growth inhibition rate is greater than 85%).

Consider `CC(C)SC(=O)C(C)Oc1nc(F)c(Cl)c(N)c1Cl` (stereo not drawn) [Compound 68], for which the “Activity level (growth inhibition rate) Galium spurium” value is 5 (Level 5: the growth inhibition rate is greater than 85%).

In the case of `CC(Oc1nc(F)c(Cl)c(N)c1Cl)C(=O)SCC(F)(F)C(F)(F)F` (stereo not drawn) [Compound 80], the “Activity level (growth inhibition rate) Galium spurium” value is given as 5 (Level 5: the growth inhibition rate is greater than 85%).

For `CC(C)CSC(=O)C(C)Oc1nc(F)c(Cl)c(N)c1Cl` (stereo not drawn) [Compound 133], the “Activity level (growth inhibition rate) Galium spurium” value is 5 (Level 5: the growth inhibition rate is greater than 85%).

In the next assay the test system is Monochoria vaginalis. Described as above. As to conditions: post-emergence spray, after 3 weeks, fresh weight inhibition. Format: in vivo. In a few lines:
as §1
`CCC(CC)SC(=O)C(C)Oc1nc(F)c(Cl)c(N)c1Cl` (stereo not drawn) [Compound 150]: the “Activity level (growth inhibition rate) Monochoria Vaginalis” value is 5 (Level 5: the growth inhibition rate is greater than 85%).

Regarding `CC(Oc1nc(F)c(Cl)c(N)c1Cl)C(=O)Sc1ccccc1` (stereo not drawn) [Compound 107], the “Activity level (growth inhibition rate) Monochoria Vaginalis” value is given as 5 (Level 5: the growth inhibition rate is greater than 85%).

Regarding `CCSC(=O)C(C)Oc1ncc(Cl)c(N)c1C(F)(F)F` (stereo not drawn) [Compound 16], the “Activity level (growth inhibition rate) Monochoria Vaginalis” value is recorded as 5 (Level 5: the growth inhibition rate is greater than 85%).

For `CC(C)SC(=O)C(C)Oc1nc(F)c(Cl)c(N)c1Cl` (stereo not drawn) [Compound 68], the “Activity level (growth inhibition rate) Monochoria Vaginalis” value is recorded as 5 (Level 5: the growth inhibition rate is greater than 85%).

In the case of `CC(Oc1nc(F)c(Cl)c(N)c1Cl)C(=O)SCC(F)(F)C(F)(F)F` (stereo not drawn) [Compound 80], the “Activity level (growth inhibition rate) Monochoria Vaginalis” value is 5 (Level 5: the growth inhibition rate is greater than 85%).

For the compound `CC(C)CSC(=O)C(C)Oc1nc(F)c(Cl)c(N)c1Cl` (stereo not drawn) [Compound 133], the “Activity level (growth inhibition rate) Monochoria Vaginalis” value is reported as 5 (Level 5: the growth inhibition rate is greater than 85%).

The subject of another assay is Leptochloa chinensis. The assay is described as above. It is filed as in vivo. As to conditions: post-emergence spray, after 3 weeks, fresh weight inhibition. In a few lines:
as §1
In the case of `CCC(CC)SC(=O)C(C)Oc1nc(F)c(Cl)c(N)c1Cl` (stereo not drawn) [Compound 150], the “Activity level (growth inhibition rate) Leptochloa chinensis” value is given as 5 (Level 5: the growth inhibition rate is greater than 85%).

With `CC(Oc1nc(F)c(Cl)c(N)c1Cl)C(=O)Sc1ccccc1` (stereo not drawn) [Compound 107], the “Activity level (growth inhibition rate) Leptochloa chinensis” value was 5 (Level 5: the growth inhibition rate is greater than 85%).

For `CCSC(=O)C(C)Oc1ncc(Cl)c(N)c1C(F)(F)F` (stereo not drawn) [Compound 16], the “Activity level (growth inhibition rate) Leptochloa chinensis” value was 5 (Level 5: the growth inhibition rate is greater than 85%).

With `CC(C)SC(=O)C(C)Oc1nc(F)c(Cl)c(N)c1Cl` (stereo not drawn) [Compound 68], the “Activity level (growth inhibition rate) Leptochloa chinensis” value is 5 (Level 5: the growth inhibition rate is greater than 85%).

With `CC(Oc1nc(F)c(Cl)c(N)c1Cl)C(=O)SCC(F)(F)C(F)(F)F` (stereo not drawn) [Compound 80], the “Activity level (growth inhibition rate) Leptochloa chinensis” value is on record as 5 (Level 5: the growth inhibition rate is greater than 85%).

In the case of `CC(C)CSC(=O)C(C)Oc1nc(F)c(Cl)c(N)c1Cl` (stereo not drawn) [Compound 133], the “Activity level (growth inhibition rate) Leptochloa chinensis” value was 5 (Level 5: the growth inhibition rate is greater than 85%).

The subject of the next assay is Setaria viridis. The assay is described as above. It is filed as in vivo. As to conditions: post-emergence spray, after 3 weeks, fresh weight inhibition. In outline: as §1
As to `CCC(CC)SC(=O)C(C)Oc1nc(F)c(Cl)c(N)c1Cl` (stereo not drawn) [Compound 150], the “Activity level (growth inhibition rate) Setaria viridis” value is listed as 5 (Level 5: the growth inhibition rate is greater than 85%).

As to `CC(Oc1nc(F)c(Cl)c(N)c1Cl)C(=O)Sc1ccccc1` (stereo not drawn) [Compound 107], the “Activity level (growth inhibition rate) Setaria viridis” value is reported as 5 (Level 5: the growth inhibition rate is greater than 85%).

Regarding `CCSC(=O)C(C)Oc1ncc(Cl)c(N)c1C(F)(F)F` (stereo not drawn) [Compound 16], the “Activity level (growth inhibition rate) Setaria viridis” value was 5 (Level 5: the growth inhibition rate is greater than 85%).

For `CC(C)SC(=O)C(C)Oc1nc(F)c(Cl)c(N)c1Cl` (stereo not drawn) [Compound 68], the “Activity level (growth inhibition rate) Setaria viridis” value is given as 5 (Level 5: the growth inhibition rate is greater than 85%).

Take `CC(Oc1nc(F)c(Cl)c(N)c1Cl)C(=O)SCC(F)(F)C(F)(F)F` (stereo not drawn) [Compound 80]: the “Activity level (growth inhibition rate) Setaria viridis” value is given as 5 (Level 5: the growth inhibition rate is greater than 85%).

For `CC(C)CSC(=O)C(C)Oc1nc(F)c(Cl)c(N)c1Cl` (stereo not drawn) [Compound 133], the “Activity level (growth inhibition rate) Setaria viridis” value is 5 (Level 5: the growth inhibition rate is greater than 85%).

The test system of the next assay is Digitaria sanguinalis. The description is as above. It is filed as in vivo. As to conditions: post-emergence spray, after 3 weeks, fresh weight inhibition. In outline:
as §1
As for `CCC(CC)SC(=O)C(C)Oc1nc(F)c(Cl)c(N)c1Cl` (stereo not drawn) [Compound 150], the “Activity level (growth inhibition rate) Digitaria sanguinalis” value is recorded as 5 (Level 5: the growth inhibition rate is greater than 85%).

As to `CC(Oc1nc(F)c(Cl)c(N)c1Cl)C(=O)Sc1ccccc1` (stereo not drawn) [Compound 107], the “Activity level (growth inhibition rate) Digitaria sanguinalis” value is 5 (Level 5: the growth inhibition rate is greater than 85%).

For `CCSC(=O)C(C)Oc1ncc(Cl)c(N)c1C(F)(F)F` (stereo not drawn) [Compound 16], the “Activity level (growth inhibition rate) Digitaria sanguinalis” value is recorded as 5 (Level 5: the growth inhibition rate is greater than 85%).

On to `CC(C)SC(=O)C(C)Oc1nc(F)c(Cl)c(N)c1Cl` (stereo not drawn) [Compound 68], for which the “Activity level (growth inhibition rate) Digitaria sanguinalis” value is listed as 5 (Level 5: the growth inhibition rate is greater than 85%).

For `CC(Oc1nc(F)c(Cl)c(N)c1Cl)C(=O)SCC(F)(F)C(F)(F)F` (stereo not drawn) [Compound 80], the “Activity level (growth inhibition rate) Digitaria sanguinalis” value is listed as 5 (Level 5: the growth inhibition rate is greater than 85%).

Regarding `CC(C)CSC(=O)C(C)Oc1nc(F)c(Cl)c(N)c1Cl` (stereo not drawn) [Compound 133], the “Activity level (growth inhibition rate) Digitaria sanguinalis” value is recorded as 5 (Level 5: the growth inhibition rate is greater than 85%).
